Measurements from paper PMC9841532, “Exploring the Effect of Halogenation in a Series of Potent and Selective A2B Adenosine Receptor Antagonists” (Journal of Medicinal Chemistry, 2022).

Tested on: human peripheral blood mononuclear cells (PBMCs)
Test: Proliferation of CFSE-labeled activated PBMCs in the presence of adenosine
Type: cell-based
Settings: PBMCs + anti-CD3/CD28 + IL-2 + Ado 0.1 mM + compound 15 μM, 3 days
Description: To gain evidence supporting the role of the here optimized A2BAR antagonists in the context of cancer immunotherapy, it was decided to evaluate the effect of two representative compounds (16b and 16j) in the proliferative activity of a prototypical immune cell. The human peripheral blood mononuclear cells (PBMCs) were selected for the study; they are critical components of the immune system and are involved in both humoral and cell-mediated immunity. Ado-mediated blockade of PBMC proliferation is well documented and characterized;[51],[52] we therefore investigated whether our A2BAR antagonists (16b and 16j) can reverse the blockade of ADO-mediated proliferation in human PBMCs. PBMCs, isolated from a healthy donor, were labeled with carboxyfluorescein succinimidyl ester (CFSE) and then activated by adding anti-CD3/CD28 antibodies and interleukin 2 (IL-2). CFSE is a cell dye that allows for the determination of cell proliferation, as dividing cells progressively lose fluorescence.
Figure 10 Effect of compounds 16b and 16j on the proliferation of PBMCs stimulated with antiCD3/CD28 + IL-2 in the presence of adenosine (ADO). […] The frequency of proliferating cells (CFSE^dim) as well as their median fluorescence intensities were quantified and ratios calculated against the values of stimulated PBMCs with no further treatment. […]

Row | Structure (SMILES) | frequency of proliferating cells (CFSEdim) [%]
1 | CC1=C(C(=O)OC(C)C)C(c2ccco2)n2c(nc3cc(F)ccc32)N1 (centres unmarked) [16b] | 9.14
2 | CC1=C(C(=O)OC(C)C)C(c2ccco2)n2c(nc3cc(Cl)ccc32)N1 (centres unmarked) [16j] | 6.54
